IC50 data for 22 compounds are collected here from patent US8580762B2, “Substituted purine and 7-deazapurine compounds” (Epizyme, Inc., priority 2010, dated 2013).

The IC50 is the midpoint of a concentration-inhibition curve.

The first experiment deals with DOT1L(1-416) (Homo sapiens, UniProt Q8TEK3). As to the kind of experiment: Determination of IC50: DOT1L(1-416) methyltransferase assay, 3H-SAM, oligonucleosome substrate, Flashplate. Type of experiment: biochemical. The conditions noted are these: class symbols; read-out: DOT1L IC50. The protocol: Determination of IC50. Test compounds were serially diluted 3 fold in DMSO for 10 points and 1 μl was plated in a 384 well microtiter plate. […] 10 μl per well of substrate mix (same assay buffer with 200 nM S-[methyl-^3H]-adenosyl-L methionine, 600 nM of unlabeled […], and 20 nM oligonueleosome) was added to initiate the reaction. Reaction was incubated for 120 minutes at room temperature and quenched with 10 μl per well of 100 μM S-methyl-adenosyl-L methionine. For detection, substrate from 50 μl of reaction was immobilized on a 384 well Streptavidin coated Flashplate (Perkin Elmer) (also coated with 0.2% polyethyleneimine) and read on a Top Count scintillation counter (Perkin Elmer).
DOT1L(1-416), sequence (Q8TEK3 1-416): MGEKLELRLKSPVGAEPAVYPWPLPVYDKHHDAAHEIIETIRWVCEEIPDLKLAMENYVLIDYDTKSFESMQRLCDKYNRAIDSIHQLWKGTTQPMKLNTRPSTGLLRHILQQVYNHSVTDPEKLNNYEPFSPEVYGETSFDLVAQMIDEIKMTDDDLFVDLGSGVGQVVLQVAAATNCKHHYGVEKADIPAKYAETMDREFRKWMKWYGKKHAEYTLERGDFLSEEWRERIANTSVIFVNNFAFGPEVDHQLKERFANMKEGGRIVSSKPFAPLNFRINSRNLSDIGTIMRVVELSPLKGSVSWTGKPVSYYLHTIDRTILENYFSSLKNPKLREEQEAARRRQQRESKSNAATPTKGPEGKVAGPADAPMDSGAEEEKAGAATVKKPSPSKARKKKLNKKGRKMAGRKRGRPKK
Consider `CC(C)N(C[C@H]1O[C@@H](n2cnc3c(N)ncnc32)[C@H](O)[C@@H]1O)[C@H]1C[C@H](CCc2nc3cc(Cl)c(C(F)(F)F)cc3[nH]2)C1` [Compound 4, (2R,3R,4S,5R)-2-(6-amino-9H-purin-9-yl)-5-((((1s,3R)-3-(2-(5-chloro-6-(trifluoromethyl)-1H-benzo[d]imidazol-2-yl)ethyl)cyclobutyl)(isopropyl)amino)methyl)tetrahydrofuran-3,4-diol], for which the IC50 is less than 100 nM.

In the case of `CC(C)N(C[C@H]1O[C@@H](n2cnc3c(N)ncnc32)[C@H](O)[C@@H]1O)[C@H]1C[C@@H](CCc2nc3cc(Cl)c(C(F)(F)F)cc3[nH]2)C1` [Compound 5], the IC50 was less than 100 nM.

For `CN(C[C@H]1O[C@@H](n2ccc3c(N)ncnc32)[C@H](O)[C@@H]1O)C1CC(Cc2nc3cc(C(C)(C)C)ccc3[nH]2)C1` (stereo partly drawn) [Compound 6, (2R,3R,4S,5R)-2-(4-amino-7H-pyrrolo[2,3-d]pyrimidin-7-yl)-5-(((3-((5-(tert-butyl)-1H-benzo[d]imidazol-2-yl)methyl)cyclobutyl)(methyl)amino)methyl)tetrahydrofuran-3,4-diol], the IC50 was less than 100 nM.

Consider `CN(C[C@H]1C[C@@H](n2ccc3c(N)ncnc32)[C@H](O)[C@@H]1O)C1CC(CCc2nc3cc(C(F)(F)F)c(Cl)cc3[nH]2)C1` (stereo partly drawn) [Compound 7, (1R,2S,3R,5R)-3-(4-amino-7H-pyrrolo[2,3-d]pyrimidin-7-yl)-5-(((3-(2-(6-chloro-5-(trifluoromethyl)-1H-benzo[d]imidazol-2-yl)ethyl)cyclobutyl)(methyl)amino)methyl)cyclopentane-1,2-diol], for which the IC50 is less than 100 nM.

For the compound `CN(C[C@H]1O[C@@H](n2cnc3c(N)ncnc32)[C@H](O)[C@@H]1O)C1CC(NC(=O)Nc2ccc(C(C)(C)C)cc2)C1` (stereo partly drawn) [Compound 8, 1-(3-((((2R,3S,4R,5R)-5-(6-amino-9H-purin-9-yl)-3,4-dihydroxytetrahydrofuran-2-yl)methyl)(methyl)amino)cyclobutyl)-3-(4-(tert-butyl)phenyl)urea], the IC50 lay within 10000 to 50000 nM.

Consider `CN(C[C@H]1C[C@@H](n2ccc3c(N)ncnc32)[C@H](O)[C@@H]1O)[C@H]1C[C@@H](CCc2nc3cc(C(F)(F)F)c(Cl)cc3[nH]2)C1` [Compound 9, (1R,2S,3R,5R)-3-(4-amino-7H-pyrrolo[2,3-d]pyrimidin-7-yl)-5-((((1r,3S)-3-(2-(6-chloro-5-(trifluoromethyl)-1H-benzo[d]imidazol-2-yl)ethyl)cyclobutyl)(methyl)amino)methyl)cyclopentane-1,2-diol], for which the IC50 is less than 100 nM.

Turning to `CN(C[C@H]1C[C@@H](n2ccc3c(N)ncnc32)[C@H](O)[C@@H]1O)[C@H]1C[C@@H](CCc2nc3cc(C(F)(F)F)ccc3[nH]2)C1` [Compound 10, (1R,2S,3R,5R)-3-(4-amino-7H-pyrrolo[2,3-d]pyrimidin-7-yl)-5-((methyl((1r,3S)-3-(2-(5-(trifluoromethyl)-1H-benzo[d]imidazol-2-yl)ethyl)cyclobutyl)amino)methyl)cyclopentane-1,2-diol], the IC50 is less than 100 nM.

Regarding `CN(C[C@H]1C[C@@H](n2ccc3c(N)ncnc32)[C@H](O)[C@@H]1O)[C@H]1C[C@H](CCc2nc3cc(C(F)(F)F)ccc3[nH]2)C1` [Compound 11, (1R,2S,3R,5R)-3-(4-amino-7H-pyrrolo[2,3-d]pyrimidin-7-yl)-5-((methyl((1s,3R)-3-(2-(5-(trifluoromethyl)-1H-benzo[d]imidazol-2-yl)ethyl)cyclobutyl)amino)methyl)cyclopentane-1,2-diol], the IC50 was less than 100 nM.

Regarding `CN(C[C@H]1C[C@@H](n2ccc3c(N)ncnc32)[C@H](O)[C@@H]1O)[C@H]1C[C@H](CCc2nc3cc(C(F)(F)F)c(Cl)cc3[nH]2)C1` [Compound 12, (1R,2S,3R,5R)-3-(4-amino-7H-pyrrolo[2,3-d]pyrimidin-7-yl)-5-((((1s,3R)-3-(2-(6-chloro-5-(trifluoromethyl)-1H-benzo[d]imidazol-2-yl)ethyl)cyclobutyl)(methyl)amino)methyl)cyclopentane-1,2-diol], the IC50 was less than 100 nM.

As to `CN(C[C@H]1C[C@@H](n2ccc3c(N)ncnc32)[C@H](O)[C@@H]1O)C1CC(CCc2nc3cc(C(F)(F)F)ccc3[nH]2)C1` (stereo partly drawn) [Compound 13, (1R,2S,3R,5R)-3-(4-amino-7H-pyrrolo[2,3-d]pyrimidin-7-yl)-5-((methyl(3-(2-(5-(trifluoromethyl)-1H-benzo[d]imidazol-2-yl)ethyl)cyclobutyl)amino)methyl)cyclopentane-1,2-diol], the IC50 is less than 100 nM.

Regarding `CC(C)N(CC1CC(Cc2nc3cc(C(F)(F)F)ccc3[nH]2)C1)C[C@H]1C[C@@H](n2ccc3c(N)ncnc32)[C@H](O)[C@@H]1O` (some centres unmarked) [Compound 15], the half-maximal inhibitory concentration (IC50) was 1000 to 10000 nM.

Take `CN(C[C@@H]1C[C@@H](O)[C@H](n2ccc3c(N)ncnc32)C1)C1CC(CCc2nc3cc(Cl)c(C(F)(F)F)cc3[nH]2)C1` (stereo partly drawn) [Compound 17, (1R,2R,4S)-2-(4-amino-7H-pyrrolo[2,3-d]pyrimidin-7-yl)-4-(((3-(2-(5-chloro-6-(trifluoromethyl)-1H-benzo[d]imidazol-2-yl)ethyl)cyclobutyl) (methyl)amino)methyl) cyclopentanol]: the IC50 is 100 to 1000 nM.

As to `CN(CC1CC(Cc2nc3cc(C(F)(F)F)ccc3[nH]2)C1)C[C@H]1C[C@@H](n2ccc3c(N)ncnc32)[C@H](O)[C@@H]1O` (stereo partly drawn) [Compound 18, (1R,2S,3R,5R)-3-{4-amino-7H-pyrrolo[2,3-d]pyrimidin-7-yl}-5-({methyl[(3-{[5-(trifluoromethyl)-1H-1,3-benzodiazol-2-yl]methyl}cyclobutyl)methyl]amino}methyl)cyclopentane-1,2-diol], the IC50 was 100 to 1000 nM.

With `CC(C)N(C[C@H]1C[C@@H](n2ccc3c(N)ncnc32)[C@H](O)[C@@H]1O)C1CC(CCc2nc3cc(C(C)(C)C)ccc3[nH]2)C1` (stereo partly drawn) [Compound 19, (1R,2S,3R,5R)-3-(4-amino-7H-pyrrolo[2,3-d]pyrimidin-7-yl)-5-(((3-(2-(5-(tert-butyl)-1H-benzo[d]imidazol-2-yl)ethyl)cyclobutyl)(isopropyl)amino)methyl)cyclopentane-1,2-diol], the IC50 is less than 100 nM.

Turning to `CC(C)N(C[C@H]1C[C@@H](n2ccc3c(N)ncnc32)[C@H](O)[C@@H]1O)C1CC(CCc2nc3cc(C(F)(F)F)c(Cl)cc3[nH]2)C1` (stereo partly drawn) [Compound 20, (1R,2S,3R,5R)-3-(4-amino-7H-pyrrolo[2,3-d]pyrimidin-7-yl)-5-(((3-(2-(6-chloro-5-(trifluoromethyl)-1H-benzo[d]imidazol-2-yl)ethyl)cyclobutyl)(isopropyl)amino)methyl)cyclopentane-1,2-diol], the IC50 was less than 100 nM.

In the case of `CC(C)N(CC1CC(Cc2nc3cc(C(F)(F)F)c(Cl)cc3[nH]2)C1)C[C@H]1C[C@@H](n2ccc3c(N)ncnc32)[C@H](O)[C@@H]1O` (stereo partly drawn) [Compound 21, (1R,2S,3R,5R)-3-{4-amino-7H-pyrrolo[2,3-d]pyrimidin-7-yl}-5-({[(3-{[6-chloro-5-(trifluoromethyl)-1H-1,3-benzodiazol-2-yl]methyl}cyclobutyl)methyl](propan-2-yl)amino}methyl)cyclopentane-1,2-diol], the IC50 was 1000 to 10000 nM.

`CC(C)N(CC1CC(Cc2nc3cc(C(C)(C)C)ccc3[nH]2)C1)C[C@H]1C[C@@H](n2ccc3c(N)ncnc32)[C@H](O)[C@@H]1O` (stereo partly drawn) [Compound 22, (1R,2S,3R,5R)-3-{4-amino-7H-pyrrolo[2,3-d]pyrimidin-7-yl}-5-{[({3-[(5-tert-butyl-1H-1,3-benzodiazol-2-yl)methyl]cyclobutyl}methyl)(propan-2-yl)amino]methyl}cyclopentane-1,2-diol]: the IC50 lay in the range of 100 to 1000 nM.

For the compound `CN(C[C@H]1C[C@@H](n2ccc3c(N)ncnc32)[C@H](O)[C@@H]1O)C1CC(CCc2nc3cc(Cl)c(Cl)cc3[nH]2)C1` (stereo partly drawn) [Compound 23, (1R,2S,3R,5R)-3-(4-amino-7H-pyrrolo[2,3-d]pyrimidin-7-yl)-5-(((3-(2-(5,6-dichloro-1H-benzo[d]imidazol-2-yl)ethyl)cyclobutyl)(methyl)amino)methyl)cyclopentane-1,2-diol], the concentration for half-maximal inhibition (IC50) is less than 100 nM.

For the compound `CN(C[C@H]1C[C@@H](n2ccc3c(N)ncnc32)[C@H](O)[C@@H]1O)C1CC(CCc2nc3cc(OC(F)(F)F)ccc3[nH]2)C1` (stereo partly drawn) [Compound 24, (1R,2S,3R,5R)-3-(4-amino-7H-pyrrolo[2,3-d]pyrimidin-7-yl)-5-((methyl(3-(2-(5-(trifluoromethoxy)-1H-benzo[d]imidazol-2-yl)ethyl)cyclobutyl)amino)methyl)cyclopentane-1,2-diol], the IC50 is less than 100 nM.

For the compound `CCN(C[C@H]1C[C@@H](n2ccc3c(N)ncnc32)[C@H](O)[C@@H]1O)C1CC(CCc2nc3cc(C(C)(C)C)ccc3[nH]2)C1` (stereo partly drawn) [Compound 25, (1R,2S,3R,5R)-3-(4-amino-7H-pyrrolo[2,3-d]pyrimidin-7-yl)-5-(((3-(2-(5-(tert-butyl)-1H-benzo[d]imidazol-2-yl)ethyl)cyclobutyl)(ethyl)amino)methyl)cyclopentane-1,2-diol], the IC50 was less than 100 nM.

For `CN(C[C@H]1C[C@@H](n2ccc3c(N)ncnc32)[C@H](O)[C@@H]1O)C1CC(CCc2nc3cc(Br)ccc3[nH]2)C1` (stereo partly drawn) [Compound 26, (1R,2S,3R,5R)-3-(4-amino-7H-pyrrolo[2,3-d]pyrimidin-7-yl)-5-(((3-(2-(5-bromo-1H-benzo[d]imidazol-2-yl)ethyl)cyclobutyl)(methyl)amino)methyl)cyclopentane-1,2-diol], the IC50 is less than 100 nM.

`CC(C)N(C[C@H]1O[C@@H](n2cnc3c(N)ncnc32)[C@H](O)[C@@H]1O)C1CC(CCc2nc3cc(C4(C)CCC4)ccc3[nH]2)C1` (stereo partly drawn) [Compound 27, (2R,3R,4S,5R)-2-(6-amino-9H-purin-9-yl)-5-((isopropyl(3-(2-(5-(1-methylcyclobutyl)-1H-benzo[d]imidazol-2-yl)ethyl)cyclobutyl)amino)methyl)tetrahydrofuran-3,4-diol]: the IC50 is less than 100 nM.

Staying with this experiment, now noted: read-out: DOT1L IC50.
Consider `CC(C)N(C[C@H]1O[C@@H](n2cnc3c(N)ncnc32)[C@H](O)[C@@H]1O)[C@H]1C[C@@H](CCc2nc3cc(Cl)c(C(F)(F)F)cc3[nH]2)C1` [Compound 5], for which the IC50 is 0.59 nM.
